In patent publication US9573947B2, “Salt of pyrazoloquinoline derivative, and crystal thereof” (Eisai R&D Management Co., Ltd., priority 2013, dated 2017):

Columns and labels:
[1] = Dissolution test in fasted state simulated intestinal fluid; type: physicochemical; conditions: for CONCENTRATION (dissolution): fasted state simulated intestinal fluid pH 6.5, 37° C., 50 rpm, in terms of compound (I); for concentration achieved relative to the concentration of compound (I): dissolution test, fasted state simulated intestinal fluid
Method: Each of compound (I) (50 mg), the compound of Example 1 (30 mg) and the compound of Example 2 (30 mg) was filled into a hydroxypropyl methylcellulose capsule, together with an equal weight of lactose hydrate. A 708-DS from Agilent Technologies was equipped with small stirring paddles and small vessels, and used as a dissolution test apparatus. Each drug-filled capsule was added to 50 ml of fasted state simulated intestinal fluid (a phosphate buffer pH 6.5 containing 0.75 mM lecithin and 3 mM sodium taurocholate) which had been warmed to 37° C. The drug was dissolved by rotating the stirring paddle at a speed of 50 rpm. The dissolved solution was sampled over time and the drug concentrations were measured by HPLC. Such dissolution tests using fasted state simulated intestinal fluid are often used to evaluate the dissolution and absorption characteristics of drugs (e.g., Takano et al., “Oral absorption of poorly water-soluble drugs: computer simulation of fraction absorbed in humans from a miniscale dissolution test”, Pharm Res., vol. 23, pp. 1144-1156, 2006). The results were shown in Table 1 and the graph in FIG. 12.

[2] = Test on oral absorption characteristics in dogs; type: in vivo, beagle dogs; conditions: for AREA UNDER PLASMA CONCENTRATION-TIME CURVE, MEAN: mean of 4 beagle dogs; for PLASMA CONCENTRATION MEAN: mean of dogs

COc1ncc(C)c(-c2ccc3c(c2)[nH]c(=O)c2cnn([C@H]4CCOC4)c23)c1C.O=S(=O)(O)c1ccccc1 [Example 2, (S)-7-(2-methoxy-3,5-dimethylpyridin-4-yl)-1-(tetrahydrofuran-3-yl)-1H-pyrazolo[4,3-c]quinolin-4(5H)-one Monobenzenesulfonate Salt]
CONCENTRATION (dissolution) ([1]; 6 minutes): 0 ng/mL | CONCENTRATION (dissolution) ([1]; 10 minutes): 500 ng/mL | CONCENTRATION (dissolution) ([1]; 15 minutes): 7300 ng/mL | CONCENTRATION (dissolution) ([1]; 20 minutes): 9300 ng/mL | CONCENTRATION (dissolution) ([1]; 30 minutes): 10200 ng/mL | CONCENTRATION (dissolution) ([1]; 60 minutes): 10700 ng/mL | CONCENTRATION (dissolution) ([1]; 90 minutes): 10600 ng/mL | CONCENTRATION (dissolution) ([1]; 120 minutes): 10700 ng/mL | CONCENTRATION (dissolution) ([1]; 180 minutes): 9400 ng/mL | CONCENTRATION (dissolution) ([1]; 240 minutes): 9000 ng/mL | concentration achieved relative to the concentration of compound (I) [1]: about 2 fold

COc1ncc(C)c(-c2ccc3c(c2)[nH]c(=O)c2cnn([C@H]4CCOC4)c23)c1C.O=C(O)/C=C\C(=O)O [Example 1, (S)-7-(2-methoxy-3,5-dimethylpyridin-4-yl)-1-(tetrahydrofuran-3-yl)-1H-pyrazolo[4,3-c]quinolin-4(5H)-one Monomaleate Salt]
CONCENTRATION (dissolution) ([1]; 6 minutes): 6400 ng/mL | CONCENTRATION (dissolution) ([1]; 10 minutes): 11800 ng/mL | CONCENTRATION (dissolution) ([1]; 15 minutes): 20800 ng/mL | CONCENTRATION (dissolution) ([1]; 20 minutes): 23300 ng/mL | CONCENTRATION (dissolution) ([1]; 30 minutes): 27900 ng/mL | CONCENTRATION (dissolution) ([1]; 60 minutes): 25000 ng/mL | CONCENTRATION (dissolution) ([1]; 90 minutes): 23900 ng/mL | CONCENTRATION (dissolution) ([1]; 120 minutes): 22100 ng/mL | CONCENTRATION (dissolution) ([1]; 180 minutes): 18800 ng/mL | CONCENTRATION (dissolution) ([1]; 240 minutes): 18800 ng/mL | concentration achieved relative to the concentration of compound (I) [1]: 4- to 5 fold | PLASMA CONCENTRATION ([2]; Dog 1, 0.25 hours, oral capsule, 100 mg in terms of the free form): BQL | PLASMA CONCENTRATION ([2]; Dog 1, 0.5 hours, oral capsule, 100 mg in terms of the free form): 428 ng/mL | PLASMA CONCENTRATION ([2]; Dog 1, 1 hour, oral capsule, 100 mg in terms of the free form): 506 ng/mL | PLASMA CONCENTRATION ([2]; Dog 1, 2 hours, oral capsule, 100 mg in terms of the free form): 343 ng/mL | PLASMA CONCENTRATION ([2]; Dog 1, 4 hours, oral capsule, 100 mg in terms of the free form): 219 ng/mL | PLASMA CONCENTRATION ([2]; Dog 1, 6 hours, oral capsule, 100 mg in terms of the free form): 158 ng/mL | PLASMA CONCENTRATION ([2]; Dog 1, 8 hours, oral capsule, 100 mg in terms of the free form): 134 ng/mL | PLASMA CONCENTRATION ([2]; Dog 1, 24 hours, oral capsule, 100 mg in terms of the free form): 102 ng/mL | AREA UNDER PLASMA CONCENTRATION-TIME CURVE ([2]; Dog 1, oral capsule, 100 mg in terms of the free form): 3830 ng·h/mL | PLASMA CONCENTRATION ([2]; Dog 2, 0.25 hours, oral capsule, 100 mg in terms of the free form): BQL | PLASMA CONCENTRATION ([2]; Dog 2, 0.5 hours, oral capsule, 100 mg in terms of the free form): 140 ng/mL | PLASMA CONCENTRATION ([2]; Dog 2, 1 hour, oral capsule, 100 mg in terms of the free form): 457 ng/mL | PLASMA CONCENTRATION ([2]; Dog 2, 2 hours, oral capsule, 100 mg in terms of the free form): 469 ng/mL | PLASMA CONCENTRATION ([2]; Dog 2, 4 hours, oral capsule, 100 mg in terms of the free form): 313 ng/mL | PLASMA CONCENTRATION ([2]; Dog 2, 6 hours, oral capsule, 100 mg in terms of the free form): 224 ng/mL | PLASMA CONCENTRATION ([2]; Dog 2, 8 hours, oral capsule, 100 mg in terms of the free form): 199 ng/mL | PLASMA CONCENTRATION ([2]; Dog 2, 24 hours, oral capsule, 100 mg in terms of the free form): 23 ng/mL | AREA UNDER PLASMA CONCENTRATION-TIME CURVE ([2]; Dog 2, oral capsule, 100 mg in terms of the free form): 4160 ng·h/mL | PLASMA CONCENTRATION ([2]; Dog 3, 0.5 hours, oral capsule, 100 mg in terms of the free form): 377 ng/mL | PLASMA CONCENTRATION ([2]; Dog 3, 1 hour, oral capsule, 100 mg in terms of the free form): 422 ng/mL | PLASMA CONCENTRATION ([2]; Dog 3, 2 hours, oral capsule, 100 mg in terms of the free form): 337 ng/mL | PLASMA CONCENTRATION ([2]; Dog 3, 4 hours, oral capsule, 100 mg in terms of the free form): 272 ng/mL | PLASMA CONCENTRATION ([2]; Dog 3, 6 hours, oral capsule, 100 mg in terms of the free form): 217 ng/mL | PLASMA CONCENTRATION ([2]; Dog 3, 8 hours, oral capsule, 100 mg in terms of the free form): 147 ng/mL | PLASMA CONCENTRATION ([2]; Dog 3, 24 hours, oral capsule, 100 mg in terms of the free form): 20 ng/mL | AREA UNDER PLASMA CONCENTRATION-TIME CURVE ([2]; Dog 3, oral capsule, 100 mg in terms of the free form): 3490 ng·h/mL | PLASMA CONCENTRATION ([2]; Dog 4, 0.25 hours, oral capsule, 100 mg in terms of the free form): BQL | PLASMA CONCENTRATION ([2]; Dog 4, 1 hour, oral capsule, 100 mg in terms of the free form): 422 ng/mL | PLASMA CONCENTRATION ([2]; Dog 4, 2 hours, oral capsule, 100 mg in terms of the free form): 401 ng/mL | PLASMA CONCENTRATION ([2]; Dog 4, 4 hours, oral capsule, 100 mg in terms of the free form): 322 ng/mL | PLASMA CONCENTRATION ([2]; Dog 4, 6 hours, oral capsule, 100 mg in terms of the free form): 248 ng/mL | PLASMA CONCENTRATION ([2]; Dog 4, 8 hours, oral capsule, 100 mg in terms of the free form): 210 ng/mL | PLASMA CONCENTRATION ([2]; Dog 4, 24 hours, oral capsule, 100 mg in terms of the free form): 74 ng/mL | AREA UNDER PLASMA CONCENTRATION-TIME CURVE ([2]; Dog 4, oral capsule, 100 mg in terms of the free form): 4540 ng·h/mL | concentration at 0.25 h ([2]; beagle, dog, plasma, po, 100 mg, Dog 3, 0.25 hours, oral capsule, 100 mg in terms of the free form): 279 ng/mL | concentration at 0.5 h ([2]; beagle, dog, plasma, po, 100 mg, Dog 4, 0.5 hours, oral capsule, 100 mg in terms of the free form): 6 ng/mL | AREA UNDER PLASMA CONCENTRATION-TIME CURVE, MEAN ([2]; oral capsule, 100 mg in terms of the free form, Monomaleate Salt): 4000 ± 450 ng·h/mL | AREA UNDER PLASMA CONCENTRATION-TIME CURVE, MEAN ([2]; oral capsule, 100 mg in terms of the free form, listed as EXAMPLE 1, Monomaleate Salt): 4000 ng·h/mL | PLASMA CONCENTRATION MEAN ([2]; 0.5 hours, oral capsule, 100 mg in terms of the free form): 315 ng/mL | PLASMA CONCENTRATION MEAN ([2]; 1 hour, oral capsule, 100 mg in terms of the free form): 452 ng/mL | PLASMA CONCENTRATION MEAN ([2]; 2 hours, oral capsule, 100 mg in terms of the free form): 388 ng/mL | PLASMA CONCENTRATION MEAN ([2]; 4 hours, oral capsule, 100 mg in terms of the free form): 282 ng/mL | PLASMA CONCENTRATION MEAN ([2]; 6 hours, oral capsule, 100 mg in terms of the free form): 212 ng/mL | PLASMA CONCENTRATION MEAN ([2]; 8 hours, oral capsule, 100 mg in terms of the free form): 172 ng/mL | PLASMA CONCENTRATION MEAN ([2]; 24 hours, oral capsule, 100 mg in terms of the free form): 55 ng/mL | absorption rate compared with compound (I) ([2]; oral capsule to beagle dogs, crossover): higher
